What was measured:
[1] = Half-life in Lewis rat at 2 mg/kg, po measured over 72 hrs by LC-MS/MS analysis; assay type: ADME, organism-based; conditions: in vivo
[2] = Drug metabolism in Lewis rat blood assessed as concentration of parent compound at 2 mg/kg, po measured at 4 hrs by LC-MS/MS analysis; assay type: ADME, organism-based; conditions: read-out: Ct
[3] = Drug metabolism in Lewis rat blood assessed as concentration of parent compound at 2 mg/kg, po measured at 24 hrs by LC-MS/MS analysis; assay type: ADME, organism-based; conditions: read-out: Ct
Rattus norvegicus [4] = assay: Drug metabolism in Lewis rat blood assessed as concentration of phosphate ester metabolite formation at 2 mg/kg, po measured at 4 hrs by LC-MS/MS analysis; conditions: in vivo
Rattus norvegicus [5] = assay: Reduction in circulating lymphocytes in Lewis rat blood at 2 mg/kg, po measured at 4 hrs by hematology analyzer based analysis; assay type: functional; design: scale not given: the % may be the effect or the level left
[6] = Ratio of drug metabolism in Lewis rat blood assessed as phosphate ester metabolite to parent drug at 2 mg/kg, po measured at 24 hrs by LC-MS/MS analysis; assay type: ADME, organism-based; conditions: in vivo
Rattus norvegicus [7] = assay: Reduction in circulating lymphocytes in Lewis rat blood at 2 mg/kg, po measured at 24 hrs by hematology analyzer based analysis; assay type: functional; design: scale not given: the % may be the effect or the level left
[8] = Cardiotoxicity in human iPSC derived cardiomyocytes assessed as reduction in beating rate at 10 nM measured over 2 hrs by multi-electrode array relative to control; assay type: toxicity, cell-based; design: scale not given: the % may be the effect or the level left; conditions: stem cell-derived cardiomyocyte, 0.01 µM
[9] = Cardiotoxicity in human iPSC derived cardiomyocytes assessed as reduction in beating rate at 1 nM measured over 2 hrs by multi-electrode array relative to control; assay type: toxicity, cell-based; design: scale not given: the % may be the effect or the level left; conditions: stem cell-derived cardiomyocyte, 0.001 µM
[10] = Drug metabolism in pH 7.4 Tris-HCl buffer assessed as amount of phosphate ester metabolite formation at […] in presence of sphingosine kinase 1,2 and Mg-ATP incubated for 30 mins by TLC based analysis relative to fingolimod
[11] = Drug metabolism in Balb/c mouse blood assessed as concentration of parent compound at 1 mg/kg, po measured at 4 hrs by LC-MS/MS analysis; assay type: ADME, organism-based; conditions: in vivo, 1 mg/kg, 4 h, 1 mg/kg, 4 h, read-out: Ct
Mus musculus [12] = assay: Reduction in circulating lymphocytes in Balb/c mouse blood at 30 mg/kg, po measured at 4 hrs by hematology analyzer based analysis; assay type: functional; design: scale not given: the % may be the effect or the level left; conditions: 30 mg/kg, 4 h
[13] = Drug metabolism in Balb/c mouse blood assessed as concentration of parent compound at 1 mg/kg, po measured at 24 hrs by LC-MS/MS analysis; assay type: ADME, organism-based; conditions: Balb/c, blood, read-out: Ct
[14] = Drug metabolism in Balb/c mouse blood assessed as concentration of phosphate ester metabolite formation at 1 mg/kg, po measured at 24 hrs by LC-MS/MS analysis; assay type: ADME, organism-based; conditions: in vivo, BLD = below limit of detection
[15] = Drug metabolism in Balb/c mouse blood assessed as concentration of parent compound at 30 mg/kg, po measured at 24 hrs by LC-MS/MS analysis; assay type: ADME, organism-based; conditions: in vivo, 30 mg/kg, 24 h, 30 mg/kg, 24 h, read-out: Ct
Mus musculus [16] = assay: Reduction in circulating lymphocytes in Balb/c mouse blood at 1 mg/kg, po measured at 4 hrs by hematology analyzer based analysis; assay type: functional; design: scale not given: the % may be the effect or the level left
[17] = Drug metabolism in Balb/c mouse blood assessed as concentration of phosphate ester metabolite formation at 1 mg/kg, po measured at 4 hrs by LC-MS/MS analysis; assay type: ADME, organism-based; conditions: in vivo, BLD = below limit of detection
[18] = Drug metabolism in Balb/c mouse blood assessed as phosphate ester metabolite formation at 30 mg/kg, po measured at 4 hrs by LC-MS/MS analysis; assay type: ADME, organism-based; conditions: in vivo
[19] = Drug metabolism in Balb/c mouse blood assessed as concentration of phosphate ester metabolite formation at 30 mg/kg, po measured at 24 hrs by LC-MS/MS analysis; assay type: ADME, organism-based; conditions: in vivo
Mus musculus [20] = assay: Reduction in circulating lymphocytes in Balb/c mouse blood at 30 mg/kg, po measured at 24 hrs by hematology analyzer based analysis; assay type: functional; design: scale not given: the % may be the effect or the level left; conditions: 30 mg/kg, 24 h
[21] = Ratio of drug metabolism in Balb/c mouse blood assessed as phosphate ester metabolite to parent drug at 30 mg/kg, po measured at 24 hrs by LC-MS/MS analysis; assay type: ADME, organism-based; conditions: in vivo
[22] = Drug metabolism in Balb/c mouse blood assessed as concentration of parent compound at 30 mg/kg, po measured at 4 hrs by LC-MS/MS analysis; assay type: ADME, organism-based; conditions: Balb/c, blood, read-out: Ct
Mus musculus [23] = assay: Reduction in circulating lymphocytes in Balb/c mouse blood at 1 mg/kg, po measured at 24 hrs by hematology analyzer based analysis; assay type: functional; design: scale not given: the % may be the effect or the level left; conditions: 1 mg/kg, 24 h
Rattus norvegicus [24] = assay: Reduction in circulating lymphocytes in Lewis rat blood assessed as effective dose after oral dosing measured at 24 hrs by hematology analyzer based analysis; assay type: functional
[25] = Pulmonary toxicity in Lewis rat assessed as elevation of BAL protein level at 3 mg/kg by advia1800 chemistry analyzer; assay type: organism-based; conditions: in vivo
[26] = Pulmonary toxicity in Lewis rat assessed as elevation of BAL protein level at 10 mg/kg by advia1800 chemistry analyzer; assay type: organism-based; conditions: in vivo
[27] = Pulmonary toxicity in Lewis rat assessed as elevation of BAL protein level at 2 mg/kg by advia1800 chemistry analyzer; assay type: organism-based; conditions: in vivo

SMILES: COc1cccc(CC2CCc3cc([C@H]4CC[C@](N)(CO)C4)ccc3C2)c1 (stereo in doubt; 12a)
- half-life [1]: 15 h
- concentration at 4 h [2]: 50 nM
- concentration at 24 h [3]: 20 nM
- Drug metabolism (Rattus norvegicus [4]): 10 nM
- Activity (Rattus norvegicus [5]; 2 mg/kg, 4 h): 30%
- Ratio [6]: 1
- Activity (Rattus norvegicus [7]; 2 mg/kg, 24 h): 73%

SMILES: COc1ccccc1CC[C@H]1CCc2cc([C@H]3CC[C@](N)(COP(=O)(O)O)C3)ccc2C1
- Activity [8]: 18%
- Activity [9]: 17%

SMILES: N[C@]1(CO)CC[C@H](c2ccc3c(c2)CC[C@H](CCc2cccnc2)C3)C1
- Drug metabolism [10]: 24%

SMILES: N[C@]1(CO)CC[C@H](c2ccc3c(c2)CC[C@@H](CCc2ncccn2)C3)C1
- Drug metabolism [10]: 4%

SMILES: N[C@]1(CO)CC[C@H](c2ccc3c(c2)CC[C@@H](CCc2ccccn2)C3)C1
- Drug metabolism [10]: 4%

SMILES: N[C@]1(CO)CC[C@H](c2ccc3c(c2)CCC(c2ccccc2)C3)C1 (stereo in doubt; 8a)
- concentration [11]: 44 nM
- Activity (Mus musculus [12]): 67%
- concentration at 24 h [13]: 27 nM
- Drug metabolism [14]: Bld
- concentration [15]: 760 nM
- Activity (Mus musculus [16]): <10%
- Drug metabolism [17]: Bld
- Drug metabolism [18]: 43 nM
- Drug metabolism [19]: 110 nM
- Activity (Mus musculus [20]): 88%
- Ratio [21]: 0.14
- concentration at 4 h [22]: 1500 nM
- Activity (Mus musculus [23]): <10%

SMILES: COc1ccnc(CC[C@H]2CCc3cc([C@H]4CC[C@](N)(CO)C4)ccc3C2)c1
- Drug metabolism [10]: 3%

SMILES: COc1ccc(CC2CCc3cc([C@H]4CC[C@](N)(CO)C4)ccc3C2)cc1 (stereo in doubt; 13a)
- Activity (Rattus norvegicus [5]): <10%
- Activity (Rattus norvegicus [7]; 2 mg/kg, 24 h): 52%

SMILES: COc1ccccc1CC1CCc2cc([C@H]3CC[C@](N)(CO)C3)ccc2C1 (stereo not given in full)
- Activity (Rattus norvegicus [5]): <10%
- Activity (Rattus norvegicus [7]): 13%

SMILES: N[C@]1(CO)CC[C@H](c2ccc3c(c2)CC[C@H](CCc2ccccc2)C3)C1
- half-life [1]: > 75 h
- concentration at 4 h [2]: 230 nM
- concentration at 24 h [3]: 300 nM
- Drug metabolism (Rattus norvegicus [4]): 40 nM
- Activity (Rattus norvegicus [5]): 11%
- Ratio [6]: 1.2
- Activity (Rattus norvegicus [7]): 78%

SMILES: COc1cccc(CC[C@@H]2CCc3cc([C@H]4CC[C@](N)(CO)C4)ccc3C2)c1
- ED50 (Rattus norvegicus [24]): 0.05 mg/kg
- half-life [1]: 31 h
- Activity [25]: 10 mg/dL
- concentration at 4 h [2]: 90 nM
- Activity [26]: 12.7 mg/dL
- concentration at 24 h [3]: 80 nM
- Drug metabolism (Rattus norvegicus [4]): 160 nM
- Activity (Rattus norvegicus [5]): 69%
- Ratio [6]: 6.3
- Activity (Rattus norvegicus [7]): 84%

SMILES: COc1cccc(CC[C@H]2CCc3cc([C@H]4CC[C@](N)(CO)C4)ccc3C2)c1
- ED50 (Rattus norvegicus [24]): 0.05 mg/kg
- half-life [1]: 49 h
- concentration at 4 h [2]: 120 nM
- Activity [27]: 10 mg/dL
- Activity [26]: 17.5 mg/dL
- concentration at 24 h [3]: 210 nM
- Drug metabolism (Rattus norvegicus [4]): 30 nM
- Activity (Rattus norvegicus [5]): 44%
- Ratio [6]: 1.1
- Activity (Rattus norvegicus [7]): 85%

SMILES: COc1cccc(CC2CCc3cc([C@H]4CC[C@](N)(CO)C4)ccc3C2)c1 (stereo in doubt; 12b)
- Activity (Rattus norvegicus [5]; 2 mg/kg, 4 h): <10%
- Activity (Rattus norvegicus [7]; 2 mg/kg, 24 h): 45%

SMILES: Cn1cncc1CCC1CCc2cc([C@H]3CC[C@](N)(CO)C3)ccc2C1 (stereo not given in full)
- Drug metabolism [10]: 5%

Source: ChEMBL document CHEMBL4765241, “Identification and Preclinical Pharmacology of ((1 R,3 S)-1-Amino-3-(( S)-6-(2-methoxyphenethyl)-5,6,7,8-tetrahydronaphthalen-2-yl)cyclopentyl)methanol (BMS-986166): A Differentiated Sphingosine-1-phosphate Receptor 1 (S1P) Modulator Advanced into Clinical Trials” (J Med Chem, 2019)
